{
  "source": "ChEMBL document CHEMBL1154205",
  "about": "“Click chemistry based rapid one-pot synthesis and evaluation for protease inhibition of new tetracyclic triazole fused benzodiazepine derivatives” (Bioorg Med Chem Lett, 2009)",
  "key": {"[1]": {"test": "Inhibition of aspartic protease"}, "[2]": {"test": "Inhibition of serine protease"}, "[3]": {"test": "Inhibition of cysteine protease"}},
  "note": "The source made the active and inactive calls. The rule behind the calls is not given here.",
  "data": [
    {"smiles": "Cc1cccc2c1C(=O)N1C[C@H](OCc3ccccc3)C[C@H]1c1cnnn1-2", "values": [
      {"measurement": "inhibition", "setting": "[1]", "value": "inactive"},
      {"measurement": "IC50", "setting": "[2]", "value": 536, "unit": "µM"},
      {"measurement": "IC50", "setting": "[3]", "value": "Not Active"}
    ]},
    {"smiles": "O=C1c2cc(I)cc(I)c2-n2nncc2[C@@H]2C[C@@H](OCc3ccccc3)CN12", "values": [
      {"measurement": "inhibition", "setting": "[1]", "value": "inactive"},
      {"measurement": "IC50", "setting": "[2]", "value": 196, "unit": "µM"},
      {"measurement": "IC50", "setting": "[3]", "value": "Not Active"}
    ]},
    {"smiles": "O=C1c2c(cccc2[N+](=O)[O-])-n2nncc2[C@@H]2CCCN12", "values": [
      {"measurement": "inhibition", "setting": "[1]", "value": "inactive"},
      {"measurement": "IC50", "setting": "[2]", "value": 108, "unit": "µM"},
      {"measurement": "IC50", "setting": "[3]", "value": "Not Active"}
    ]},
    {"smiles": "Cc1cc(Br)cc2c1C(=O)N1CCC[C@H]1c1cnnn1-2", "values": [
      {"measurement": "inhibition", "setting": "[1]", "value": "inactive"},
      {"measurement": "IC50", "setting": "[2]", "value": 674, "unit": "µM"},
      {"measurement": "IC50", "setting": "[3]", "value": "Not Active"}
    ]},
    {"smiles": "O=C1c2cc(Br)ccc2-n2nncc2[C@@H]2CCCN12", "values": [
      {"measurement": "inhibition", "setting": "[1]", "value": "inactive"},
      {"measurement": "IC50", "setting": "[2]", "value": 290, "unit": "µM"},
      {"measurement": "IC50", "setting": "[3]", "value": "Not Active"}
    ]},
    {"smiles": "O=C1c2cc(Br)ccc2-n2nncc2[C@@H]2C[C@@H](OCc3ccccc3)CN12", "values": [
      {"measurement": "inhibition", "setting": "[1]", "value": "inactive"},
      {"measurement": "IC50", "setting": "[2]", "value": 206, "unit": "µM"},
      {"measurement": "IC50", "setting": "[3]", "value": "Not Active"}
    ]}
  ]
}
